In US20160184340A1, “THE USE OF SPINOSYNS AND SPINOSYN COMPOSITIONS AS LOCAL ANESTHETICS AND AS ANTIARRHYTHMIC AGENTS” (Entarco SA, priority 2010, published 2016):
Where “and” joins values, the source holds several entries; their conditions need not be identical. Equal entries are not always repeated. Structures can show the parent of a compound that is named as a salt. Where two headings read alike, the source gives them in different places.

Columns and labels:
male Sprague-Dawley rats [1] = test: Pain response testing, foot pinch test (Example 1, comparison with Lidocaine); assay type: in vivo; conditions: for Foot Pinch Test average per animal, round 1: group average (1 = no anesthetic effect, 0 = effect); for Foot Pinch Test average per animal, round 1 / Foot Pinch Test Results Round 1: 45 minutes post dose; for Foot Pinch Test average per animal, round 1 / Foot Pinch Test average per animal, round 2 / Foot Pinch Test average per animal, round 3 / Foot Pinch Test average per animal, round 4 / Foot Pinch Test average per animal, round 5 / Foot Pinch Test average per animal, round 6: SQ 1.33 mL/kg (spinosad 12 mg/kg; Lidocaine 26.6 mg/kg); for Foot Pinch Test average per animal, round 2 / Foot Pinch Test average per animal, round 3 / Foot Pinch Test average per animal, round 4 / Foot Pinch Test average per animal, round 5 / Foot Pinch Test average per animal, round 6: group average; for Foot Pinch Test average per animal, round 2 / Foot Pinch Test Results Round 2: 70 minutes post dose; for Foot Pinch Test average per animal, round 3 / Foot Pinch Test Results Round 3: 1.5 hour post dose; for Foot Pinch Test average per animal, round 4 / Foot Pinch Test Results Round 4: 2 hours post dose; for Foot Pinch Test average per animal, round 5 / Foot Pinch Test Results Round 5: 2.5 hours post dose; for Foot Pinch Test average per animal, round 6 / Foot Pinch Test Results Round 6: 4 hours post dose; for Foot Pinch Test Results Round 1 / Foot Pinch Test Results Round 2 / Foot Pinch Test Results Round 3 / Foot Pinch Test Results Round 4 / Foot Pinch Test Results Round 5 / Foot Pinch Test Results Round 6: individual animal; for Foot Pinch Test Results Round 1: single SQ 1.33 mL/kg into left hind foot (spinosad 12 mg/kg; Lidocaine 2% solution, 26.6 mg/kg); for Foot Pinch Test Results Round 2 / Foot Pinch Test Results Round 3 / Foot Pinch Test Results Round 4 / Foot Pinch Test Results Round 5 / Foot Pinch Test Results Round 6: single SQ 1.33 mL/kg (spinosad 12 mg/kg; Lidocaine 26.6 mg/kg)
Experimental: Positive control: Lidocaine (Manufacturer: VetTek), as a Lidocaine Hydrochloride (2% solution or approx. 74 mM)
Assay: Pain response testing-foot pinch
Animals used: male Sprague-Dawley rats
Experimental set-up. The test article was administered as follows:
Approximately 1.33 mL/kg spinosad solution was administered once, subcutaneously at 12 mg/kg (9 mg/mL, 1.33 mL/kg) into the left hind foot of each rat in the treatment group (Group 3), positive control group (Group 2, Lidocaine, 1.33 mL/kg), and control vehicle group (Group 1, DMSO, 1.33 mL/kg).
Beginning approximately 45 minutes post-dose all animals were subjected to pain response testing, foot pinch test. The test was conducted on each rat, in order, and then repeated on each, 5 more times (6 rounds of testing) through 4 hours post-dose. The foot pinch test measured the rodent's tolerance of pressure on their foot. The rat was removed from its cage and the treated foot was pinched. Whether or not the rodent's foot responded to the pinch was documented. The treatment group averages were compared to positive and negative control group averages (Table 3 and FIG. 1).
Six total rounds of foot pinch-pain response testing were conducted at approximately 45, 70, 90, 120, 150, and 240 minutes post-dose. Time of dosing and pain testing results were recorded for each animal.

male Sprague-Dawley rats [2] = test: Foot pinch test, duration of action and reversible effects (Example 2); assay type: in vivo; conditions: for Foot Pinch Test average per animal, round 1 / Foot Pinch Test average per animal, round 2 / Foot Pinch Test average per animal, round 3 / Foot Pinch Test average per animal, round 4 / Foot Pinch Test average per animal, round 5: group average; for Foot Pinch Test average per animal, round 1 / Foot Pinch Test Results Round 1: 1 hour post dose; for Foot Pinch Test average per animal, round 2 / Foot Pinch Test Results Round 2: 4 hours post dose; for Foot Pinch Test average per animal, round 3 / Foot Pinch Test Results Round 3: 6 hours post dose; for Foot Pinch Test average per animal, round 4 / Foot Pinch Test Results Round 4: 8 hours post dose; for Foot Pinch Test average per animal, round 5 / Foot Pinch Test Results Round 5: 24 hours post dose; for Foot Pinch Test Results Round 2 / Foot Pinch Test Results Round 3 / Foot Pinch Test Results Round 4 / Foot Pinch Test Results Round 5 / Foot Pinch Test Results Round 1: individual animal
Experimental: This test was conducted to establish spinosad's reversible local anesthetic effects and confirm the prolonged effect. The same assay as in example 1 was used.
Test article: spinosad in DMSO 9 mg/ml, administered in two doses; high dose 9 mg/kg and low dose 4.5 mg/kg.
The treatment group averages were compared to positive and negative control group averages (Table 6 and FIG. 2).

[3] = no value or species printed; cited from earlier work
[4] = target: cloned hERG potassium channels (Homo sapiens, UniProt Q12809)
Chain of cloned hERG potassium channels (Q12809 whole entry): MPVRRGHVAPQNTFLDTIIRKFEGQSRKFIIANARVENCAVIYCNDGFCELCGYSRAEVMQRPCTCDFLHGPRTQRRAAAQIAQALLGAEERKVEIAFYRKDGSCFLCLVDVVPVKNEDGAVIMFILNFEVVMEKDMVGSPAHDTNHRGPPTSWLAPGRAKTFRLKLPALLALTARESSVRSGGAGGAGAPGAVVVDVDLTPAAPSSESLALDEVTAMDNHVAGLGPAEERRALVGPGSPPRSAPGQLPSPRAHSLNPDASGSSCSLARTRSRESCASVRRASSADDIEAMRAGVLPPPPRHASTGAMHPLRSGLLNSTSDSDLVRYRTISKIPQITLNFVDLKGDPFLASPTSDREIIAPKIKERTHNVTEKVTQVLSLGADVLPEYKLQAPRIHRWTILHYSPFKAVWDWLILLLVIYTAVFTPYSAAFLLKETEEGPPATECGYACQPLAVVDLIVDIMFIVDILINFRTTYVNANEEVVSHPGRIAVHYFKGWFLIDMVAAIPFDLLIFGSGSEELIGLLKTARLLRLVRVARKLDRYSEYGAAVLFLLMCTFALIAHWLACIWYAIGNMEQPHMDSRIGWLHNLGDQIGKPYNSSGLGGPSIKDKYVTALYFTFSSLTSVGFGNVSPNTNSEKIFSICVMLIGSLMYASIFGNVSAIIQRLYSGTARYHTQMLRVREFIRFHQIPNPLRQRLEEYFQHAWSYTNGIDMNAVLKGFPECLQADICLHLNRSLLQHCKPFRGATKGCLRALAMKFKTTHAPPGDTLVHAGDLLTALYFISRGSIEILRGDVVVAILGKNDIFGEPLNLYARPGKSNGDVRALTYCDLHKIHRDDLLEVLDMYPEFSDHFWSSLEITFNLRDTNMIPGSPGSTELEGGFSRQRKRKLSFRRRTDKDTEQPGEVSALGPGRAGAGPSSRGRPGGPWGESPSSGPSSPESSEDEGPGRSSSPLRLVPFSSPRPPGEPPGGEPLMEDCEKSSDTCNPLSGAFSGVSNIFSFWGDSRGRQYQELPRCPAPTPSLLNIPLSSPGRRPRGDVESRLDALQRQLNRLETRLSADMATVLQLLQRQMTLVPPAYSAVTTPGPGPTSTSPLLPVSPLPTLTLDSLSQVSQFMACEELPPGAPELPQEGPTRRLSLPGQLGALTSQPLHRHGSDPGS
Experimental: Rational for Ion channel selection: Inhibition of hERG (IKr) channels closely predicts the cardiac action potential prolongation. […] This stable expressed hERG cell line is widely used for hERG testing. The percentage inhibition of spinosad on human-ERG currents were evaluated from the gold standard manual patch clamp studies.
Test sample: spinosad (Supplier:Sigma-Aldrich/Fluka), in DMSO 9 mg/ml (0.8% w/w or approx. 12 mM)
Positive control: Terfenadine (Supplier: Sigma-Aldrich), in DMSO at a concentration of 1 mM.
All the final solutions contained no more than 0.3% DMSO.
Assay: Electrophysiology recording: Micropipette was pulled from borosilicate glass with the pipette tip resistance between 3-5 MΩ. For each experiment, a single dish of cells is removed from the incubator, washed twice with room temperature ECS and then placed on the microscope stage. A commercial patch clamp amplifier was used for the whole cell recordings.
Voltage protocol and current recording: The tail currents were evoked at room temperature once every 30 s by a 3 s −50 mV repolarizing pulse following a 2 s+50 mV depolarizing pulse with a hold voltage of −80 mV. A 50 ms depolarized pulse to −50 mV at the beginning of the voltage protocol served as a baseline for calculating the amplitude of the peak tail current. Only stable cells with recording parameters above threshold were allowed to enter the drug application procedure. The hERG currents were allowed to stabilize over a 3 minutes period in the presence of a vehicle alone prior to the application of spinosad. The cells were kept in the test solution until the peak tail current was stable (<5% change) for about 5 sweeps or for a maximum of 6 min, whichever came first.
Acceptance criteria for measurements: 1. Whole-cell membrane resistance (Rm) was greater than 1000 MΩ throughout the experiment. 2. Initial current was greater than 300 pA. 3. Series resistance value following establishment of whole-cell mode was less than 12 MΩ. 4. The leak current that the cell began with or developed over time was less than 10% of the ionic current magnitude (up to a maximum of 80 pA).

## CCN(CC)CC(=O)Nc1c(C)cccc1C [Lidocaine, Lidocaine Hydrochloride]
Male Sprague-Dawley rats [1]; Lidocaine group, 1.33 mL/kg SQ, post-dose
  Time by which localized anesthetic effect resolved: ~70 min
Male Sprague-Dawley rats [1]
  Foot Pinch Test average per animal, round 1: 0.00
  Foot Pinch Test average per animal, round 2: 0.67
  Foot Pinch Test average per animal, round 3: 1.00
  Foot Pinch Test average per animal, round 4: 1.00
  Foot Pinch Test average per animal, round 5: 1.00
  Foot Pinch Test average per animal, round 6: 1.00
  Foot Pinch Test Results Round 1: 0.00
  Foot Pinch Test Results Round 3: 1.00
  Foot Pinch Test Results Round 4: 1.00
  Foot Pinch Test Results Round 5: 1.00
  Foot Pinch Test Results Round 6: 1.00
Male Sprague-Dawley rats [1]; Hydrochloride
  Foot Pinch Test Results Round 2: 1.00 (4×) and 0.00 (2×)

## spinosad
Male Sprague-Dawley rats [1]
  Foot Pinch Test average per animal, round 1: 0.00
  Foot Pinch Test average per animal, round 2: 0.00
  Foot Pinch Test average per animal, round 3: 0.17
  Foot Pinch Test average per animal, round 4: 0.17
  Foot Pinch Test average per animal, round 5: 0.33
  Foot Pinch Test average per animal, round 6: 0.50
  Foot Pinch Test Results Round 1: 0.00
  Foot Pinch Test Results Round 2: 0.00
  Foot Pinch Test Results Round 3: 0.00 (5×) and 1.00
  Foot Pinch Test Results Round 4: 0.00 (5×) and 1.00
  Foot Pinch Test Results Round 5: 0.00 (4×) and 1.00 (2×)
  Foot Pinch Test Results Round 6: 0.00 (3×) and 1.00 (3×)
Male Sprague-Dawley rats [1]; single SQ dose 12 mg/kg, study duration 4 hours
  Duration of local anesthetic effect (remained unresolved): ≥ 4 h
Male Sprague-Dawley rats [1]; single subcutaneous dose into the footpad at 12 mg/kg
  Tolerability: well tolerated
Male Sprague-Dawley rats [2]; 4.5 mg/kg SQ
  Foot Pinch Test average per animal, round 1: 0.50
  Foot Pinch Test average per animal, round 2: 0.83
  Foot Pinch Test average per animal, round 3: 1.00
  Foot Pinch Test average per animal, round 4: 1.00
  Foot Pinch Test average per animal, round 5: 1.00
  Foot Pinch Test Results Round 3: 1.00
  Foot Pinch Test Results Round 4: 1.00
  Foot Pinch Test Results Round 5: 1.00
Male Sprague-Dawley rats [2]; 9.0 mg/kg SQ
  Foot Pinch Test average per animal, round 1: 0.00
  Foot Pinch Test average per animal, round 2: 0.17
  Foot Pinch Test average per animal, round 3: 0.50
  Foot Pinch Test average per animal, round 4: 0.50
  Foot Pinch Test average per animal, round 5: 1.00
  Foot Pinch Test Results Round 5: 1.00
Male Sprague-Dawley rats [2]; 4.5 mg/kg SQ, 4.5 mg/kg
  Foot Pinch Test Results Round 2: 1.00 (5×) and 0.00
Male Sprague-Dawley rats [2]; 9.0 mg/kg SQ, 9 mg/kg
  Foot Pinch Test Results Round 2: 0.00 (5×) and 1.00
  Foot Pinch Test Results Round 3: 0.00 (3×) and 1.00 (3×)
  Foot Pinch Test Results Round 4: 0.00 (3×) and 1.00 (3×)
Male Sprague-Dawley rats [2]; spinosad high dose 9.0 mg/kg SQ foot pad
  Foot Pinch Test Results Round 1: 0.00
Male Sprague-Dawley rats [2]; spinosad low dose 4.5 mg/kg SQ foot pad, 4.5 mg/kg
  Foot Pinch Test Results Round 1: 1.00 (3×) and 0.00 (3×)
Male Sprague-Dawley rats [2]; single SQ dose 4.5 mg/kg
  Duration of local anesthetic effect: lasted during the first hour of study only
Male Sprague-Dawley rats [2]; single SQ dose 9 mg/kg
  Duration of local anesthetic effect (remained unresolved): 6 to 8 h
  Reversibility of local anesthetic effect: fully reversible at 24 hours
Male Sprague-Dawley rats [2]; single subcutaneous dose into the footpad at 9 mg/kg
  Tolerability: well tolerated
[3]
  LD50 relative to lidocaine: much higher LD50 than lidocaine
[4]; 1.35 μM
  % Block Cell #2: 3.5%
  % Block Cell #3: 0.6%
  Average Inhibition (%) of hERG currents: 7.2±8.9%
[4]; 1.35 μM, hERG tail current, room temperature
  % Block Cell #1: 17.3%
[4]; 4.50 μM
  % Block Cell #1: 26.9%
  % Block Cell #2: 19.2%
  % Block Cell #3: 19.4%
  Average Inhibition (%) of hERG currents: 21.8±4.4%
[4]; 13.50 μM
  % Block Cell #1: 30.3%
  % Block Cell #2: 48.4%
  % Block Cell #3: 47.7%
  % Block Cell #4: 40.2%
  Average Inhibition (%) of hERG currents: 41.7±8.4%
[4]; 36.00 μM
  % Block Cell #2: 77.5%
  % Block Cell #3: 84.1%
  % Block Cell #4: 73.2%
  Average Inhibition (%) of hERG currents: 78.3±5.5%
[4]; saline wash
  Reversibility of blocking on hERG current: reversible after one minute of saline wash
[4]; whole cell recordings, HEK293-hERG stable cell line
  Concentration dependence of hERG current inhibition: inhibited hERG currents in a concentration-dependent manner
